Data: US12030876B2, “Aryl hydrocarbon receptor (AHR) agonists and uses thereof” (Ikena Oncology, Inc., priority 2019, dated 2024)
pEC50: −log10 of the molar value.

Experiments:
[1] = molecular target: T1, AHR (Homo sapiens, UniProt P35869); experiment: DRE-Luciferase Reporter Assay, HepG2 (agonist); format: cell-based; details: HepG2, Table 2; read-out: DRE-Luc HepG2 - Agonist: Average EC50
T1 construct: endogenous in cells; host or cells: HepG2 (human), transfected with a DRE-luciferase reporter only
T1 sequence (P35869 11-848): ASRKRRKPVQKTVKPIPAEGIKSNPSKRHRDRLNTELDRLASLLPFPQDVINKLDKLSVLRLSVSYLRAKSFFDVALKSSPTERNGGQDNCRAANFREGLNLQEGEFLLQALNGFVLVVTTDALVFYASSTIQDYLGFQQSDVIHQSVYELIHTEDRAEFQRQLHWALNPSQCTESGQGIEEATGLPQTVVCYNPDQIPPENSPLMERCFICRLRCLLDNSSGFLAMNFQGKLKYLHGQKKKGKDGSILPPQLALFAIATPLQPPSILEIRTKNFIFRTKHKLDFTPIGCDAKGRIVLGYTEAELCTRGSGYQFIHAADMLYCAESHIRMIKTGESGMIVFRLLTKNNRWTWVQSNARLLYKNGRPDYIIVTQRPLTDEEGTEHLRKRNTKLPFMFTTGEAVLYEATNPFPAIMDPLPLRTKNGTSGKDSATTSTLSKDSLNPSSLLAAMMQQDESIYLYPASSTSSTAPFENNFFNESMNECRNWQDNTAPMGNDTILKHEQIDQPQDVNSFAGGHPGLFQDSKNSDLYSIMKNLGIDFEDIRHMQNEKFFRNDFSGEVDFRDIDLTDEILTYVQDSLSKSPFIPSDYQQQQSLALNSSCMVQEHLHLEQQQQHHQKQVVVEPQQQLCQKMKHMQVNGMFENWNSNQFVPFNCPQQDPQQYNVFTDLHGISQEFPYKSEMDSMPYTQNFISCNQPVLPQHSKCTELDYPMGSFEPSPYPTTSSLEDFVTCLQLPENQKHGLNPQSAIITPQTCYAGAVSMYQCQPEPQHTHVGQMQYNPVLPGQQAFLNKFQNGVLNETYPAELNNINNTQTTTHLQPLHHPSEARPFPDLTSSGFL
Outline: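 Cells carrying a stably or transiently transfected DRE-luciferase reporter, plated overnight at 37 C, then given agonist for 6, 16 or 24 h before lysis and luciferase read-out. Signal scaled between no ligand (minimum) and activating ligand alone, e.g. TCDD (maximum); EC50 = concentration giving half-maximal luciferase activity.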

[2] = molecular target: T2, AHR (Mus musculus, UniProt P30561); experiment: P450 CYP1A1 Luciferase Assay, Hepa1.6 (agonist); format: cell-based, murine; details: Hepa1.6, Table 2
T2 sequence (P30561 1-848 F348L/P471L): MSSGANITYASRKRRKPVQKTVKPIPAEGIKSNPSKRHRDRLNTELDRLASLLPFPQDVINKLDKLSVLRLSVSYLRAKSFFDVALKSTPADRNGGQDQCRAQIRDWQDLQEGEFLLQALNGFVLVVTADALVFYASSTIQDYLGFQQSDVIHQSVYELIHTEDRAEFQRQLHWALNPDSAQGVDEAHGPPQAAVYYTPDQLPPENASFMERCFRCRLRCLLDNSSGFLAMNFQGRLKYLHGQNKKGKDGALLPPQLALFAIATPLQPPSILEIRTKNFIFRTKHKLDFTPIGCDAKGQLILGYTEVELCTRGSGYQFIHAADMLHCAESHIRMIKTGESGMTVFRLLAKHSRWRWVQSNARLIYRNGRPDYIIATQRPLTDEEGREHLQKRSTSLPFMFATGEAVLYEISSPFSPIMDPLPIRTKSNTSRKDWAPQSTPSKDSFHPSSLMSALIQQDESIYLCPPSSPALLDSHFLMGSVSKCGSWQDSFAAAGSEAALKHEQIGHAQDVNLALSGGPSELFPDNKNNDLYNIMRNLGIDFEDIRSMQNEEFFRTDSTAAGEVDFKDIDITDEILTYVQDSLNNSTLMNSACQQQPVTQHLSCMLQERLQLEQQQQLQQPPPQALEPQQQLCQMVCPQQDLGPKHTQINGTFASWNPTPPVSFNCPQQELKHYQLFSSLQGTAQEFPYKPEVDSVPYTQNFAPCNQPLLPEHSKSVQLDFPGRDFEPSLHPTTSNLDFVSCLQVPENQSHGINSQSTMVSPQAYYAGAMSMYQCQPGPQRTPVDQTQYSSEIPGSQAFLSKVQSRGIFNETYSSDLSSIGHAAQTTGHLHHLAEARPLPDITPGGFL
Outline: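 Murine Hepa1-6 (or other murine/human lines) treated with agonist for 6, 16 or 24 h, then lysed and incubated with luminogenic CYP1A1 substrate (e.g. Luciferin-CEE). Luminescence normalised between no-ligand minimum and reference AHR ligand maximum; EC50 is concentration giving half-maximal activation.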

[3] = test system: human Crohn's and ulcerative colitis tissue cultures

Structure (SMILES)	pEC50 [1]	pEC50 [2]	cytokine release: IFN-γ, IL-17A, IL-1β, and TNF-α [3]
FC(F)(F)c1cccc(Nc2nc(-c3cccc(Cl)c3)cs2)c1 [Compound P-2]	> 8.00	6.00 to 7.00	–
Nc1cccc(-c2csc(Nc3cccc(C(F)(F)F)c3)n2)c1 [I-10]	> 8.00	6.00 to 7.00	decreases
